Measured values reported in ChEMBL document CHEMBL3763143, “Novel morpholine scaffolds as selective dopamine (DA) D3 receptor antagonists” (Bioorg Med Chem Lett, 2016).
pIC50, pKi: −log10 of the molar value.

Key:
[1] = Fraction absorbed in portal vein-cannulated rat; format: ADME, organism-based; details: in vivo
Cytochrome P450 3A4 [2] = target: T1, Cytochrome P450 3A4 (Homo sapiens, UniProt P08684); test: Inhibition of human CYP3A4 expressed in bactosome using DBOMF as substrate; format: ADME
D(3) dopamine receptor = D(3) dopamine receptor (Rattus norvegicus, UniProt P19020)
Description: Displacement of [125I]-7-OH-PIPAT from rat brain dopamine D3 receptor after 45 mins by microplate scintillation counting analysis

Cytochrome P450 3A4 [3] = target: T1, Cytochrome P450 3A4; test: Inhibition of human CYP3A4 expressed in bactosome using 7BQ as substrate; format: ADME
[4] = Fraction unbound in portal vein-cannulated rat blood; format: ADME, tissue-based
Cytochrome P450 2C9 = Cytochrome P450 2C9 (Homo sapiens, UniProt P11712); test: Inhibition of human CYP2C9 expressed in bactosome; format: ADME
[5] = Bioavailability in portal vein-cannulated rat; format: ADME, organism-based; details: in vivo
[6] = Intrinsic clearance in rat liver microsomes assessed per mg of protein; format: ADME; details: read-out: CLH
[7] = Fraction unbound in portal vein-cannulated rat brain; format: ADME, tissue-based
Cytochrome P450 1A2 = target: T2, Cytochrome P450 1A2 (Homo sapiens, UniProt P05177); test: Inhibition of human CYP1A2 expressed in bactosome; format: ADME
T2 sequence (P05177 whole entry): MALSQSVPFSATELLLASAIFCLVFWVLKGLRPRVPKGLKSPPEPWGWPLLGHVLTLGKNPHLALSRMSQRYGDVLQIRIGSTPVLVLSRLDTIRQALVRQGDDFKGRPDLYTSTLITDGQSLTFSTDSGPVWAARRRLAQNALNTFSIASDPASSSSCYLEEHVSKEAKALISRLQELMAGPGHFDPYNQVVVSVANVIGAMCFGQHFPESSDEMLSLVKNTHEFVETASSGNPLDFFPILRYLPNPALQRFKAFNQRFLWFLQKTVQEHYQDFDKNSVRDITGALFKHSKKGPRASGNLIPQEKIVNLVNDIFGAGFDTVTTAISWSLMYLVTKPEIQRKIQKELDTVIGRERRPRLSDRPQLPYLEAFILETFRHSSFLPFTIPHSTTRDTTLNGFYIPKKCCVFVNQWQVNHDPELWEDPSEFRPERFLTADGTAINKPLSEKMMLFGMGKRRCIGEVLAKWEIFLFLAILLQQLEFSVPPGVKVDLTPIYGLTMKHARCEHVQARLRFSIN

[8] = target: Voltage-gated inwardly rectifying potassium channel KCNH2 (Homo sapiens, UniProt Q12809); test: Displacement of [3H]-dofetilide from human ERG potassium channel by scintillation proximity assay
[9] = Volume of distribution at steady state in portal vein-cannulated rat; format: ADME, organism-based; details: in vivo, read-out: Vdss
[10] = Hepatic extraction ratio in portal vein-cannulated rat; format: ADME, organism-based; details: in vivo, read-out: ERH
[11] = target: T3, Muscarinic acetylcholine receptor M1 (Homo sapiens, UniProt P11229); test: Antagonist activity at muscarinic M1 receptor (unknown origin)
T3 sequence (P11229 whole entry): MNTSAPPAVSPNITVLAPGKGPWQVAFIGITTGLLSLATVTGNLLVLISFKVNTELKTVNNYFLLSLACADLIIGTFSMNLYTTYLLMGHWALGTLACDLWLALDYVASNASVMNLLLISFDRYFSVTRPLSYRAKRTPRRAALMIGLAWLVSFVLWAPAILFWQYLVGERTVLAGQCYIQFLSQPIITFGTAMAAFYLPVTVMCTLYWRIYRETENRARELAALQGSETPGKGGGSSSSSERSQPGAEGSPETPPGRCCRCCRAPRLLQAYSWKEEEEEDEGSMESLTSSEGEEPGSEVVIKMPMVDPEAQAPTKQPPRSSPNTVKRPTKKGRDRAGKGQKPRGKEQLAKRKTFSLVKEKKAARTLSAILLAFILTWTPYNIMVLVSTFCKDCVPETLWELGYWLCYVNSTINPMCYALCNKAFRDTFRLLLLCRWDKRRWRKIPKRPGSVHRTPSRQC

[12] = Half life in portal vein-cannulated rat; format: ADME, organism-based; details: in vivo
Cytochrome P450 2C19 = Cytochrome P450 2C19 (Homo sapiens, UniProt P33261); test: Inhibition of human CYP2C19 expressed in bactosome; format: ADME
Cytochrome P450 2D6 = Cytochrome P450 2D6 (Homo sapiens, UniProt P10635); test: Inhibition of human CYP2D6 expressed in bactosome; format: ADME
[13] = Intrinsic clearance in human liver microsomes assessed per mg of protein; format: ADME; details: read-out: CLH
[14] = Blood clearance in portal vein-cannulated rat; format: ADME, organism-based; details: whole blood

T1 sequence (P08684 whole entry): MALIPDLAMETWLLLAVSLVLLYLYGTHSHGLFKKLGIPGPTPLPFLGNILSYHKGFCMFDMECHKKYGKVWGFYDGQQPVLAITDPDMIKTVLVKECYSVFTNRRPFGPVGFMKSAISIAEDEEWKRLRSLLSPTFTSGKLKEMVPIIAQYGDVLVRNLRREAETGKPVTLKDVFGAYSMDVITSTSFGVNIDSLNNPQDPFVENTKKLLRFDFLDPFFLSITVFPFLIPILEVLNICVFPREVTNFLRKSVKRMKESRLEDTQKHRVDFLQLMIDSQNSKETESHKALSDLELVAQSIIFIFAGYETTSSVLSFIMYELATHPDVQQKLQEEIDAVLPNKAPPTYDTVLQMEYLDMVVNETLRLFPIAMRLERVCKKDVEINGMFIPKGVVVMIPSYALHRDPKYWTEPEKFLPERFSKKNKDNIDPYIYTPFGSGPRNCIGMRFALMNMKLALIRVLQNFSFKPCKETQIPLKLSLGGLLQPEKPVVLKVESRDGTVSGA
Sequence of Voltage-gated inwardly rectifying potassium channel KCNH2 (Q12809 whole entry): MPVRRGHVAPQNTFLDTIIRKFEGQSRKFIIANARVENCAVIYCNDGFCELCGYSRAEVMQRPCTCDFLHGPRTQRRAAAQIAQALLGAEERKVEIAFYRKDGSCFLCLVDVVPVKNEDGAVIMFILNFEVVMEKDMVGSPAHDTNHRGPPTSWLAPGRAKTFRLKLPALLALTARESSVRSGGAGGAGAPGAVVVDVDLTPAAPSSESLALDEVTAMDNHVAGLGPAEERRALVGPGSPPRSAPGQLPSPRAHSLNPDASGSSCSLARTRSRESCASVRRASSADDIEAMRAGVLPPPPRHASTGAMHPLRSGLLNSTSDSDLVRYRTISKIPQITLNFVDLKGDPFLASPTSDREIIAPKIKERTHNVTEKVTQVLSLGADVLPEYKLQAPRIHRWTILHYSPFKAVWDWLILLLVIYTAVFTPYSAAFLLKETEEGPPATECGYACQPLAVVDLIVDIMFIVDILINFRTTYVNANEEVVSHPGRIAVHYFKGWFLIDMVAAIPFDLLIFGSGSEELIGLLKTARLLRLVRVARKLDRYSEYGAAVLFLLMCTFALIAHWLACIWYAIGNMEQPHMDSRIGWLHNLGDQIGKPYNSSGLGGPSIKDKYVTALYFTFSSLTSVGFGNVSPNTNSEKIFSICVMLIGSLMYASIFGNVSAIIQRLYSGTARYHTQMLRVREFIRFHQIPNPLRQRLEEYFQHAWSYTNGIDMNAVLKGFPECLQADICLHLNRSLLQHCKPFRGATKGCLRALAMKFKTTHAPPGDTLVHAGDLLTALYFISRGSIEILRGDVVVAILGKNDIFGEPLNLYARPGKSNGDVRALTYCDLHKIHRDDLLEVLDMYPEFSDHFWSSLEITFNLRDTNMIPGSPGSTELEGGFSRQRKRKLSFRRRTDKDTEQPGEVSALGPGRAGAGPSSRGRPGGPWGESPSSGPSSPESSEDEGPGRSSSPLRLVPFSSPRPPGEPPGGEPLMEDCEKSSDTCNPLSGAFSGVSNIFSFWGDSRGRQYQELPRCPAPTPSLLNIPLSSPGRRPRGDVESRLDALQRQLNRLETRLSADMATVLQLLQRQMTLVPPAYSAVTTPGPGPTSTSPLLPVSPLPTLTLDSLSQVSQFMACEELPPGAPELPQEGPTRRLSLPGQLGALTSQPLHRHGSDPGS
Sequence of Cytochrome P450 2D6 (P10635 whole entry): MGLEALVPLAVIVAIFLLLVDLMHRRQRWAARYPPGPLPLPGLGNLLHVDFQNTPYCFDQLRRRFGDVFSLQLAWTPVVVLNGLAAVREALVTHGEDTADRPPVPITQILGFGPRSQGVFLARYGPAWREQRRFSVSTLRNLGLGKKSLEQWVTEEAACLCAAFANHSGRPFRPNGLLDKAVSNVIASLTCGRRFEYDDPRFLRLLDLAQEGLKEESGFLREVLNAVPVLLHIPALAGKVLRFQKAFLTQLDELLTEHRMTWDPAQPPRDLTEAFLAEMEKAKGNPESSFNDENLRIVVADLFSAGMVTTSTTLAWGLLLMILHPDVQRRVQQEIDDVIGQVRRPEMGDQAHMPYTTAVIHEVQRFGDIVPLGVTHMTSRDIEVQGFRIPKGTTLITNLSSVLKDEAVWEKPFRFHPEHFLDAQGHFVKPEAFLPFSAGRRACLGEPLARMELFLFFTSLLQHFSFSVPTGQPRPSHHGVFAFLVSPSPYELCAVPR
Sequence of D(3) dopamine receptor (P19020 whole entry): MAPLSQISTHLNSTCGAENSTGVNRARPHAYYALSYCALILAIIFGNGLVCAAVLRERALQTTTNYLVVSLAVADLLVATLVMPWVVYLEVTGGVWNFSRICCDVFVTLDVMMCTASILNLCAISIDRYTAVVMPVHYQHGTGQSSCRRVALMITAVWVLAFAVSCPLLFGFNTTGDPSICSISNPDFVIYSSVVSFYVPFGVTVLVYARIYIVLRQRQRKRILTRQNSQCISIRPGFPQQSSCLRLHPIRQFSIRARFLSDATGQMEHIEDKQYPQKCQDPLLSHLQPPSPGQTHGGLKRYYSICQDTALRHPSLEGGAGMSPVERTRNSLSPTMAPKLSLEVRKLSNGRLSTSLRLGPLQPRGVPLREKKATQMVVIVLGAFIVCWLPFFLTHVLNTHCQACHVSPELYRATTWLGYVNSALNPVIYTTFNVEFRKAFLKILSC
Sequence of Cytochrome P450 2C9 (P11712 whole entry): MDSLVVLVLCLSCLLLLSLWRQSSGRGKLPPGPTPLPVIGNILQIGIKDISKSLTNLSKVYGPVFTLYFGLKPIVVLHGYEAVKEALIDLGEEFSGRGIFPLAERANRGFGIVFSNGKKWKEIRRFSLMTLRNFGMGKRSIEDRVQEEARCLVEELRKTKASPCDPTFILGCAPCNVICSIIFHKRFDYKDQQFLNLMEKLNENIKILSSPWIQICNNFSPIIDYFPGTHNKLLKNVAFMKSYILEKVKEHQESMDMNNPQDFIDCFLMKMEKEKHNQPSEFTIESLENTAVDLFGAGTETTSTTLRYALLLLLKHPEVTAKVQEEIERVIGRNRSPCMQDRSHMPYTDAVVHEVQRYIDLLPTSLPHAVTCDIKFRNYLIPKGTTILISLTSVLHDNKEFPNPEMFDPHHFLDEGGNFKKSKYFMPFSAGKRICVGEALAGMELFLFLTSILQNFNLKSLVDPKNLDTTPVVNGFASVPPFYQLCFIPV
Sequence of Cytochrome P450 2C19 (P33261 whole entry): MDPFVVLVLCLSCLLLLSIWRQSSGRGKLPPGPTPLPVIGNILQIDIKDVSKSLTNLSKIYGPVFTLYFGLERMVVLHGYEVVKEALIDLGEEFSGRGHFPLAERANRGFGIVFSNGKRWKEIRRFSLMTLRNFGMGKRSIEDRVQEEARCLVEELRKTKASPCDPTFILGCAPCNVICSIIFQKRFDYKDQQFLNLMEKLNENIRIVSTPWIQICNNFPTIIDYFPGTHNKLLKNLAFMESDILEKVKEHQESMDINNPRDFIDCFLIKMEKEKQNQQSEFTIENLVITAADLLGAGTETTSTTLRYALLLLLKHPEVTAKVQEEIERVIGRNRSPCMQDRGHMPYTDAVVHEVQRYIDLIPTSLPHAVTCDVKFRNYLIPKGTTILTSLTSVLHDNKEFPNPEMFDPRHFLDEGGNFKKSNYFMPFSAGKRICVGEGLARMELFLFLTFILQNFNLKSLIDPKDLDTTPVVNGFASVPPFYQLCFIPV

## Cc1ncoc1-c1nnc(SCCCN2CCOC(c3ccc(F)cc3)C2)n1C (stereo in doubt; 7)
[1]
  Fa: 100%
Cytochrome P450 3A4 [2]
  pIC50: < 4.52
D(3) dopamine receptor
  pKi: 6.60
Cytochrome P450 3A4 [3]
  pIC50: < 4.52
[4]
  fraction unbound: 0.17
Cytochrome P450 2C9
  pIC50: < 4.52
[5]
  bioavailability: 100%
[6]
  microsomal CLint: < 9 µL/min/mg
[7]
  fraction unbound: > 0.5
Cytochrome P450 1A2
  pIC50: < 4.52
[8]
  pKi: 5.50
[9]
  Vd: 2.61 L/kg
[10]
  hepatic extraction ratio: 0.1
[11]
  pKi: 5.50
[12]
  half-life: 48 min
Cytochrome P450 2C19
  pIC50: < 4.52
Cytochrome P450 2D6
  pIC50: < 4.52
[13]
  microsomal CLint: 21.7 µL/min/mg
[14]
  clearance: 40 mL/min/kg
